33 compounds from patent US11168086B2, “Methods of synthesizing pyrazine compounds” (Hoffmann-La Roche Inc., priority 2015, dated 2021) can be followed below.

For orientation: EC50 means the midpoint of the concentration-response curve. High values mean a need for much substance, low ones an effect from little substance.

Molecules are shown by their SMILES.

The test system of the first assay is HBV. Put plainly: HBV inhibition assay: anti-HBV activity in vitro in HepG2.2.15 cells (extracellular HBV DNA by qPCR). It counts as cell-based. To be noted: Hepatitis B virus, 120 h, five days after compound treatment, extracellular HBV DNA in culture supernatant by qPCR, concentration at which HBV replication is inhibited by 50%. The text has this:
Example 441: HBV Inhibition Assays
Cell Line and Culture Conditions:
HepG2.2.15 is a stably-transfected cell line containing the HBV genome. It is derived from the hepatoblastoma cell line Hep G2 (American Type Culture Collection, ATCC® HB-8065™) by the published procedures described in reference: MA Selles et al. Proc. Natl. Acad. Sci. USA 1987, 84, 1005-1009. The cell line was maintained in Dulbecco's modified Eagle's medium (DMEM)-F12 medium supplemented with 10% fetal bovine serum, 100 U/mL penicillin, 100 μg/mL streptomycin, and 0.5 mg/mL of G418.
Anti-HBV Activity In Vitro:
HepG2.2.15 cells were seeded into 96-well plates (3×10^4 cells in 100 μL media per well) and incubated overnight at 37° C. The test compounds were serially half-log diluted in DMSO, then diluted 100 times in culture media. 100 μL diluted compounds were added into the plates to reach 0.5% final concentration of DMSO in every well. Five days after compound treatment, culture supernatant was collected for further analysis.
For quantitative PCR detection of extracellular HBV DNA, culture supernatant was processed by Proteinase K digestion. After heat inactivation of the enzyme, the samples were subjected to HBV DNA quantification by qPCR. The effective compound concentration at which
HBV replication is inhibited by 50% (EC50) was determined.
On the technique in general: Real-time PCR tracks product formation cycle by cycle.
As to `O=C(Nc1ccc(F)c(Cl)c1)N1CCn2ncc(-c3ccc(F)cc3)c2C1` [Example 21, N-(3-chloro-4-fluoro-phenyl)-3-(4-fluorophenyl)-6,7-dihydro-4H-pyrazolo[1,5-a]pyrazine-5-carboxamide], the 50% effective concentration (EC50) is 76 nM. The same measure, in the same setting: under `O=C(Nc1ccc(F)c(Cl)c1)N1CCn2ncc(-c3ccccc3F)c2C1` [Example 24, N-(3-chloro-4-fluoro-phenyl)-3-(2-fluorophenyl)-6,7-dihydro-4H-pyrazolo[1,5-a]pyrazine-5-carboxamide] stands 33 nM. `O=C(Nc1cccc(Cl)c1)N1CCn2ncc(-c3ccccc3F)c2C1` [Example 30, N-(3-chlorophenyl)-3-(2-fluorophenyl)-6,7-dihydro-4H-pyrazolo[1,5-a]pyrazine-5-carboxamide] gave an EC50 of 72 nM. Regarding `O=C(Nc1ccc(F)cc1)N1CCn2ncc(-c3ccccc3F)c2C1` [Example 33, 3-(2-fluorophenyl)-N-(4-fluorophenyl)-6,7-dihydro-4H-pyrazolo[1,5-a]pyrazine-5-carboxamide], the EC50 was found to be 85 nM.

In turn, `O=C(Nc1ccc(F)c(C(F)(F)F)c1)N1CCn2ncc(-c3ccccc3F)c2C1` [Example 34, 3-(2-fluorophenyl)-N-[4-fluoro-3-(trifluoromethyl)phenyl]-6,7-dihydro-4H-pyrazolo[1,5-a]pyrazine-5-carboxamide] gave a concentration for a half-maximal effect (EC50) of 52 nM.

Compound `O=C(Nc1ccc(F)c(Cl)c1)N1CCn2ncc(-c3ccc(F)cc3F)c2C1` [Example 50, N-(3-chloro-4-fluoro-phenyl)-3-(2,4-difluorophenyl)-6,7-dihydro-4H-pyrazolo[1,5-a]pyrazine-5-carboxamide] returned an EC50 of 36 nM. In turn, `O=C(Nc1cc(F)c(F)c(F)c1)N1CCn2ncc(-c3ccc(F)cc3F)c2C1` [Example 51, 3-(2,4-difluorophenyl)-N-(3,4,5-trifluorophenyl)-6,7-dihydro-4H-pyrazolo[1,5-a]pyrazine-5-carboxamide] showed an EC50 of 68 nM. With `CC1Cn2ncc(-c3ccc(F)cc3)c2CN1C(=O)Nc1cc(F)c(F)c(F)c1` (stereo not drawn) [Example 53, 3-(4-fluorophenyl)-6-methyl-N-(3,4,5-trifluorophenyl)-6,7-dihydro-4H-pyrazolo[1,5-a]pyrazine-5-carboxamide], a half-maximal response (EC50) required 34 nM. The same measure, in the same setting: under `CC1Cn2ncc(-c3ccc(F)cc3)c2CN1C(=O)Nc1ccc(F)c(Cl)c1` (stereo not drawn) [Example 61, N-(3-chloro-4-fluoro-phenyl)-3-(4-fluorophenyl)-6-methyl-6,7-dihydro-4H-pyrazolo[1,5-a]pyrazine-5-carboxamide] stands 29 nM; under `O=C(Nc1ccc(F)c(Cl)c1)N1CCn2ncc(-c3cc(C(F)(F)F)ccn3)c2C1` [Example 67, N-(3-chloro-4-fluoro-phenyl)-3-[4-(trifluoromethyl)-2-pyridyl]-6,7-dihydro-4H-pyrazolo[1,5-a]pyrazine-5-carboxamide], 29 nM. Consider `Cc1cc(-c2cnn3c2CN(C(=O)Nc2ccc(F)c(Cl)c2)CC3)ncc1F` [Example 68, N-(3-chloro-4-fluoro-phenyl)-3-(5-fluoro-4-methyl-2-pyridyl)-6,7-dihydro-4H-pyrazolo[1,5-a]pyrazine-5-carboxamide], for which a half-maximal effect (EC50) was put at 75 nM. `O=C(Nc1ccc(F)c(Cl)c1)N1CCn2ncc(C3CCCCC3)c2C1` [Example 73, N-(3-chloro-4-fluoro-phenyl)-3-cyclohexyl-6,7-dihydro-4H-pyrazolo[1,5-a]pyrazine-5-carboxamide] gave a concentration for a half-maximal effect (EC50) of 45 nM.

For `N#Cc1cc(NC(=O)N2CCn3ncc(-c4ccc(F)cn4)c3C2)ccc1F` [Example 76, N-(3-cyano-4-fluoro-phenyl)-3-(5-fluoro-2-pyridyl)-6,7-dihydro-4H-pyrazolo[1,5-a]pyrazine-5-carboxamide], the response was half-maximal at 95 nM (EC50). On the same count and under the same terms, the result for `O=C(Nc1ccc(F)c(Cl)c1)N1CCn2ncc(C3CCCC3)c2C1` [Example 78, N-(3-chloro-4-fluoro-phenyl)-3-cyclopentyl-6,7-dihydro-4H-pyrazolo[1,5-a]pyrazine-5-carboxamide] reads 29 nM; that for `N#Cc1cc(NC(=O)N2CCn3ncc(C4CCCC4)c3C2)ccc1F` [Example 79, N-(3-cyano-4-fluoro-phenyl)-3-cyclopentyl-6,7-dihydro-4H-pyrazolo[1,5-a]pyrazine-5-carboxamide], 28 nM; that for `Cc1cc(NC(=O)N2CCn3ncc(-c4ccc(F)cc4)c3C2)ccc1F` [Example 81, N-(4-fluoro-3-methyl-phenyl)-3-(4-fluorophenyl)-6,7-dihydro-4H-pyrazolo[1,5-a]pyrazine-5-carboxamide], 32 nM. The compound `CC1Cn2ncc(-c3ccc(F)cc3F)c2CN1C(=O)Nc1ccc(F)c(C#N)c1` (stereo not drawn) [Example 85, N-(3-cyano-4-fluoro-phenyl)-3-(2,4-difluorophenyl)-6-methyl-6,7-dihydro-4H-pyrazolo[1,5-a]pyrazine-5-carboxamide] came in with a 50% effective concentration (EC50) of 11 nM. `CC1Cn2ncc(-c3ccc(F)cc3)c2CN1C(=O)Nc1ccc(F)c(C#N)c1` (stereo not drawn) [Example 86, N-(3-cyano-4-fluoro-phenyl)-3-(4-fluorophenyl)-6-methyl-6,7-dihydro-4H-pyrazolo[1,5-a]pyrazine-5-carboxamide] displayed a half-maximal effective concentration (EC50) of 66 nM.

As for `CC1Cn2ncc(-c3ccc(F)cc3F)c2CN1C(=O)Nc1ccc(F)c(Cl)c1` (stereo not drawn) [Example 92, N-(3-chloro-4-fluoro-phenyl)-3-(2,4-difluorophenyl)-6-methyl-6,7-dihydro-4H-pyrazolo[1,5-a]pyrazine-5-carboxamide], the response was half-maximal at 13 nM (EC50).

Compound `CC1Cn2ncc(-c3ccc(F)cn3)c2CN1C(=O)Nc1ccc(F)c(Cl)c1` (stereo not drawn) [Example 94, N-(3-chloro-4-fluoro-phenyl)-3-(5-fluoro-2-pyridyl)-6-methyl-6,7-dihydro-4H-pyrazolo[1,5-a]pyrazine-5-carboxamide] came in with a concentration for a half-maximal effect (EC50) of 33 nM. The same measure, in the same setting: the result for `CC1Cn2ncc(C3CCCC3)c2CN1C(=O)Nc1ccnc(Cl)c1` (stereo not drawn) [Example 96, N-(2-chloro-4-pyridyl)-3-cyclopentyl-6-methyl-6,7-dihydro-4H-pyrazolo[1,5-a]pyrazine-5-carboxamide] reads 72 nM; that for `CC1Cn2ncc(-c3ccc(F)cn3)c2CN1C(=O)Nc1cc(F)c(F)c(F)c1` (stereo not drawn) [Example 99, 3-(5-fluoro-2-pyridyl)-6-methyl-N-(3,4,5-trifluorophenyl)-6,7-dihydro-4H-pyrazolo[1,5-a]pyrazine-5-carboxamide], 24 nM; that for `CC1Cn2ncc(-c3ccc(F)cn3)c2CN1C(=O)Nc1ccc(F)c(C#N)c1` (stereo not drawn) [Example 100, N-(3-cyano-4-fluoro-phenyl)-3-(5-fluoro-2-pyridyl)-6-methyl-6,7-dihydro-4H-pyrazolo[1,5-a]pyrazine-5-carboxamide], 61 nM.

In turn, `C[C@H]1Cn2ncc(-c3ccc(F)cc3)c2CN1C(=O)Nc1ccc(F)c(Cl)c1` [Example 102, (6S)—N-(3-chloro-4-fluoro-phenyl)-3-(4-fluorophenyl)-6-methyl-6,7-dihydro-4H-pyrazolo[1,5-a]pyrazine-5-carboxamide] yielded an EC50 of 14 nM. Regarding `C#Cc1cc(NC(=O)N2CCn3ncc(-c4ccc(F)cc4)c3C2)ccc1F` [Example 122, N-(3-ethynyl-4-fluoro-phenyl)-3-(4-fluorophenyl)-6,7-dihydro-4H-pyrazolo[1,5-a]pyrazine-5-carboxamide], the EC50 amounted to 93 nM.

Regarding `O=C(Nc1ccc(F)c(Cl)c1)N1CCn2cnc(-c3ccc(F)cc3)c2C1` [Example 127, N-(3-chloro-4-fluoro-phenyl)-1-(4-fluorophenyl)-6,8-dihydro-5H-imidazo[1,5-a]pyrazine-7-carboxamide], the EC50 is 86 nM.

Still in this assay, the particulars now being: five days after compound treatment, extracellular HBV DNA in culture supernatant by qPCR, concentration at which HBV replication is inhibited by 50%.
On to `CC1C(C#N)CC(=O)N1c1cnn2c1CN(C(=O)Nc1cc(F)c(F)c(F)c1)[C@@H](C)C2` (single isomer, unassigned) [Example 420-1], for which the response was half-maximal at 27 nM (EC50). As for `CC1C(C#N)CC(=O)N1c1cnn2c1CN(C(=O)Nc1cc(F)c(F)c(F)c1)[C@@H](C)C2` (single isomer, unassigned) [Example 420-2], a half-maximal effect (EC50) was put at 30 nM. Compound `CC1C(C#N)CC(=O)N1c1cnn2c1CN(C(=O)Nc1cc(F)c(F)c(F)c1)[C@@H](C)C2` (single isomer, unassigned) [Example 420-3] displayed an EC50 of 3 nM. `C[C@H]1Cn2ncc(N3CC(c4ccccc4)C(O)C3=O)c2CN1C(=O)Nc1cc(F)c(F)c(F)c1` (single isomer, unassigned) [Example 438-1] had an EC50 of 10 nM. Same read-out and setting: under `C[C@H]1Cn2ncc(N3CC(c4ccccc4)C(O)C3=O)c2CN1C(=O)Nc1cc(F)c(F)c(F)c1` (single isomer, unassigned) [Example 438-2] stands 108 nM.

As for `C[C@H]1Cn2ncc(N3CC(c4ccccc4)C(O)C3=O)c2CN1C(=O)Nc1cc(F)c(F)c(F)c1` (single isomer, unassigned) [Example 438-3], it took 44 nM to reach a half-maximal effect (EC50).

Compound `C[C@H]1Cn2ncc(N3CC(c4ccccc4)C(O)C3=O)c2CN1C(=O)Nc1cc(F)c(F)c(F)c1` (single isomer, unassigned) [Example 438-4] displayed a concentration giving a half-maximal response (EC50) of 10 nM.
